In the test the test system is 2-phenyl-1,4-benzoquinone-induced writhing in mice. Nature of the test: 2-phenyl-1,4-benzoquinone-induced writhing test in mice (PQW Activity), analgesia. It counts as in vivo. On the procedure: Exptl. […] The tests were conducted at the subcutaneous dose of 20 mg/kg.
Background: In writhing tests, fewer writhes than in controls are read as antinociception.

Counter-ions that a name gives are not always drawn.

As to `Nc1c2c(nc3ccccc13)CCc1cn(CC(=O)O)nc1-2` [11-Amino-4,5-dihydro-2H-pyrazolo[3,4-a]acridine-2-acetic acid hydrochloride hemihydrate], the “PQW Activity, % Inhibition” value (subcutaneous, 20 mg/kg) was 58%.
Take `CN(C)CCn1cc2c(n1)-c1c(nc3ccccc3c1N)CC2` [11-Amino-4,5-dihydro-2-(2-dimethylaminoethyl)-2H-pyrazolo [3,4-a]acridine]: the “PQW Activity, % Inhibition” value (subcutaneous, 20 mg/kg) stood at 59%.
Turning to `CC(=O)Oc1ccccc1C(=O)O` [Aspirin, reference compound], where the note is “33 mg/kg, s.c. (reference compound)”, the “PQW Activity, % Inhibition” value is 50%.
`N#CCn1cc2c(n1)-c1c(nc3ccccc3c1N)CC2` [11-Amino-4,5-dihydro-2H-pyrazolo[3,4-a]acridine-2-acetonitrile]: the “PQW Activity, % Inhibition” value (subcutaneous, 20 mg/kg) turned out to be 47%.
Same read-out and setting: in the case of `Cn1cc2c(n1)-c1c(nc3ccccc3c1N)CC2` [11-Amino-4,5-dihydro-2-methyl-2H-pyrazolo[3,4-a]acridine] it was 54%; in that of `CCn1cc2c(n1)-c1c(nc3ccccc3c1N)CC2` [11-Amino-4,5-dihydro-2-ethyl-2H-pyrazolo[3,4-a]acridine], 67%; in that of `Nc1c2c(nc3ccccc13)CCc1cnn(-c3ccccc3)c1-2` [11-Amino-4,5-dihydro-1-phenyl-1H-pyrazolo[3,4-a]acridine], 48%.

Source of the values: patent US5179100A, “4,5-dihydropyrazolo[3,4-a]acridines” (Hoechst-Roussel Pharmaceuticals inc., priority 1992, dated 1993).
